Consider four substances from US20250082759A1, “COMPOSITIONS COMPRISING THERAPEUTIC NUCLEIC ACID AND TARGETED SAPONIN FOR THE TREATMENT OF MUSCLE-WASTING DISORDERS” (SAPREME TECHNOLOGIES B.V., priority 2021, published 2025).

The subject of one data set is dystrophin exon 51. In words: Exon 51 skip analysis in differentiated human myotubes from a non-DMD (healthy) donor (KM155). The data set is classed as cell-based. The conditions noted are these: for % exon skipping: 72 hrs. As for the experimental part:
Immortalized human myoblasts from non-DMD donors (KM155) and myoblasts from a DMD-affected donor (DM8036) were cultured in Skeletal Muscle Cell Growth Medium (PromoCell, Germany) with supplementary pack according to manufacturer's instructions, further supplemented with 15% fetal bovine serum (Gibco, United Kingdom), and 0.5% gentamicin (Sigma-Aldrich, USA). For differentiation, cells were seeded on a 0.5% gelatine-coated surface, and at ˜70-80% confluence, the proliferation medium was replaced by DMEM (Gibco) supplemented with 2% FBS (Gibco), 2% GlutaMAX, and 1% glucose (Sigma-Aldrich) and 0.5% gentamycin. Treatments were started after at least 3 days up to a maximum of 5 days of differentiation (based on the presence of differentiated myotubes).
RNA was isolated with the TRIsure Isolation Reagent (Bioline) and chloroform extraction; isopropanol precipitation of RNA from the aqueous phase was performed as known to someone skilled in the art. For cDNA synthesis, 1000 ng of total RNA was used and diluted in an appropriate amount of RNase-free water to yield 8 μl RNA dilution. The priming premixed contained 1 μl dNTP mix (10 mM each) and 1 μl specific reverse primer (for KM155, h53R 5′-[…]-3′ [SEQ ID NO: 5]; for DM8036, h55R 5′-[…]-3′ [SEQ ID NO: 6]). This mixture was heated for 5 min at 70° C., then chilled on ice for at least 1 min. A reaction mixture was prepared containing 0.5 μl rRNasin (Promega), 4.0 μl RT buffer, 1.0 μl Tetro RT (Bioline), and 4.5 μl RNase-free water, and was added to the chilled mixture to yield a total volume of 20 μl per reaction. The RT-PCR was run for 60 min at 42° C., then 5 min at 85° C., and chilled on ice. For skip analysis, a nested PCR approach was followed. To this end, in the first PCR, 3 μl cDNA were added to a mix of 2.5 μl 10× SuperTaq PCR buffer, 0.5 μl dNTP mix (10 mM each), 0.125 μl Taq DNA polymerase TAQ-RO (5 U/μl; Roche) 16.875 μl RNase-free water and 1 μl (10 pmol/μl) of each primer flanking the targeted exons were used: for KM155, h48F 5′-[…]-3′ [SEQ ID NO: 7] and h53R 5′-[…]-3′ [SEQ NO: ID 5]; for DM8036, h47F2 5′-[…]-3′ [SEQ ID NO: 8] and h54R 5′-[…]-3′ [SEQ ID NO: 9]. These samples were subjected to a PCR run of 5 min at 94° C., then 25 cycles with 40 sec at 94° C., 40 sec at 60° C., 180 sec at 72° C., after which for 7 min at 72° C. For the second PCR, 1.5 μl PCR1 sample were added to a mix of 5 μl 10× SuperTaq PCR buffer, 1 μl dNTP mix (10 mM each), 0.25 μl Taq DNA polymerase TAQ-RO (5 U/μl; Roche), 38.25 μl RNase-free water and 2 μl (10 pmol/μl) of each primer flanking the targeted exons were used: for KM155, h49F 5′-[…]-3′ [SEQ ID NO: 10] and h52R2 5′-[…]-3′ [SEQ ID NO: 11]; for DM8036, h47F 5′-[…]-3′ [SEQ ID NO: 12] and h53R 5′-[…]-3′ [SEQ ID NO: 13]. These samples were subjected to a PCR run of 5 min at 94° C., then 32 cycles with 40 sec at 94° C., 40 sec at 60° C., 60 sec at 72° C., after which for 7 min at 72° C. Exon skipping levels were quantified with the Femto Pulse System using the Ultra Sensitivity NGS Kit (Agilent), according to the manufacturer's instructions. Alternatively, the specific PCR fragments were analyzed using Bioanalyzer 2100 with DNA1000 chip (lab-on-a-chip; Agilent), or separated on 2% agarose gels run at 120 V. Gels were imaged and band intensities were quantified using ImageJ. The expected non-skipped product has a size of 408 bp (KM155) and 475 bp (DM8036), and the skip product of 175 bp (KM155) or 242 bp (DM8036), respectively.
Immortalized human myoblasts from non-DMD donors (KM155) were cultured as described above in the Methods (as performed in Examples 1-5).
RNA was isolated with the TRIsure Isolation Reagent (Bioline) and chloroform extraction; isopropanol precipitation of RNA from the aqueous phase was performed as known to someone skilled in the art. […]

The subject of another data set is dystrophin exon 23. In words: Exon 23 skip analysis in differentiated murine C2C12 myotubes. It counts as cell-based, mouse. As to the method:
Murine myoblast cell line C2C12 was maintained in 10% FBS DMEM medium+Pen/Strep and plated at 240,000 cells per well (cpw) in 24-well plates or 40,000 cpw in 96-well plates (wp) in maintenance medium (10% FBS in DMEM medium+Pen/Strep) and incubated at 37° C. with 5% CO2. Twenty-four hours after seeding, cells were switched to differentiation media (2% horse serum in DMEM) and incubated for 3 days before refreshing the medium. After another 24 hours, medium was refreshed again and compounds were added and incubated for 48 hours. Differentiation medium was then refreshed (without compounds), and cells were incubated for another 24 hours. At 72 hours total post treatment, cells in the 24-wp were harvested for exon skip analysis and the cell viability was assessed on the 96-wp.
For analysis of skip from murine cell lines, cells were harvested and RNA was isolated using 0.5 ml TRIzol™ Reagent (Thermo Scientific) per sample, according to the manufacturer's instruction. For analysis of tissue, 30-50 mg frozen tissue was first cut into smaller pieces and mRNA was isolated using TRIzol™ Reagent (Thermo Scientific) and a TissueLyser LT (Qiagen) according to the manufacturer's instruction. For cDNA synthesis per sample, to 0.5 μg RNA in 5.0 μl, 10.0 μl ddH2O, 4 μl 5× iScript™ Reaction Mix and 1.0 μl iScript™ Reverse Transcriptase (BioRad) were added to yield a total volume of 20.0 μl per reaction. The RT-PCR was run for 5 min at 25° C., 60 min at 46° C., and 2 min at 95° C. For skip analysis, SapphireAmp™ Fast PCR Master Mix (TakaraBio) was used according to the manufacturer's instructions. To this end, 9.7 μl RNAse free water, 12.5 μl of 2× Master Mix, 0.4 μl of 10 μM FW primer 5′-[…]-3′ (SEQ ID NO: 14) and 0.4 μl of […] RV primer 5′-[…]-3′ (SEQ ID NO: 15) were added to a PCR tube, mixed, after which 2 μl cDNA (50 ng) was added, to yield a total volume of 25 μl. These samples were subjected to a PCR run of 1 min at 94° C., 35 cycles of 5 sec at 98° C., 5 sec at 55° C., 5 sec at 72° C., followed by 1 min at 72° C. Samples were mixed with 2 μl 6× loading buffer, then 16 μl were loaded onto an 2% agarose gel and ran for 60-90 min at 80 V. Gels were imaged and band intensities were quantified with a ChemiDoc™ XRS+System and Image Lab™ Software (BioRad). The expected non-skipped product has a size of 788 bp, and the skip product of 575 bp, respectively.
Murine myoblast cell line C2C12 was maintained in 10% FBS DMEM medium+Pen/Strep and plated at 240,000 cells per well (cpw) in 24-well plates, or at 40,000 cpw in 96-well plates (wp), in maintenance medium (10% FBS in DMEM medium+Pen/Strep) and incubated at 37° C. with 5% CO2. Twenty-four hours after seeding, cells were switched to differentiation media (2% horse serum in DMEM) and incubated for 3 days before refreshing the medium. After another 24 hours, medium was refreshed again and compounds were added and incubated for 48 hours. At 48 hours total post treatment, cells in the 24-wp were harvested for exon skip analysis and the cell viability was assessed on the 96-wp.
Performed as described above in the Methods (as performed in Examples 1-5).

Oligonucleotides are written 5' to 3', each unit as a sugar letter and its base; * is a phosphorothioate linkage, no mark a phosphodiester; rarer units and linkages stand in square brackets, end groups in braces. Plain capitals give the bases only. m = 2'-O-methyl

Turning to “DMD-ASO: 2′O-methyl-phosporothioate antisense oligonucleotide 5′-UCAAGGAAGAUGGCAUUUCU-3′ [SEQ ID NO: 1]; exon 51 skipping; same sequence and chemistry as drisapersen (antisense mU*mC*mA*mA*mG*mG*mA*mA*mG*mA*mU*mG*mG*mC*mA*mU*mU*mU*mC*mU; further chemistry not fully specified)”, the “improvement in potency with vs without SO1861-EMCH or SO1861-SC-Mal co-administration” value in the data set with dystrophin exon 51 is “one to two orders of magnitude lower”. Moreover, the “% exon skipping” value in the data set on dystrophin exon 51 (0.08 μM DMD oligo alone, Lab-on-a-chip) amounted to 0%; with dystrophin exon 51 (0.31 μM DMD oligo alone, Lab-on-a-chip), 0%; in the data set with dystrophin exon 51 (1.25 μM DMD oligo alone, Lab-on-a-chip), 0%; in the data set with dystrophin exon 51 (5 μM DMD oligo alone, Lab-on-a-chip), 1%.
Consider “DMD-PMO: PMO 5′-CTCCAACATCAAGGAAGATGGCATTTCTAG-3′ [SEQ ID NO: 2]; exon 51 skipping; same sequence but not 5′-modifications as eteplirsen (all phosphorodiamidate morpholino (PMO))”, for which the “improvement in potency with vs without SO1861-EMCH or SO1861-SC-Mal co-administration” value in the data set on dystrophin exon 51 was “one to two orders of magnitude lower”. The “% exon skipping” value with dystrophin exon 51 (0.08 μM DMD oligo alone, Femto) was 0%; in the data set with dystrophin exon 51 (0.31 μM DMD oligo alone, Femto) it was 0%; in the data set with dystrophin exon 51 (1.25 μM DMD oligo alone, Femto) it was 0%; with dystrophin exon 51 (5 μM DMD oligo alone, Femto) it was 0%; in the data set on dystrophin exon 51 (20 μM DMD oligo alone, Femto), 4%.
In the case of “IGF-1-SO1861+500 nM M23D: IGF-1-SO1861 (DAR2.7) co-administered with 500 nM M23D”, the “exon 23 skip” value with dystrophin exon 23 (133 nM IGF-1-SO1861 + 500 nM M23D) was 8%; with dystrophin exon 23 (667 nM IGF-1-SO1861 + 500 nM M23D) it was 11%; with dystrophin exon 23 (3333 nM IGF-1-SO1861 + 500 nM M23D) it was 19%.
Turning to “M23D: PMO 5′-GGCCAAACCTCGGCTTACCTGAAAT-3′ [SEQ ID NO: 3] that induces exon 23 skipping of mouse dystrophin (all phosphorodiamidate morpholino (PMO))”, the “exon 23 skip” value with dystrophin exon 23 (500 nM M23D alone (0 nM conjugate)) was 5%. Further, in the data set with dystrophin exon 23 (500 nM M23D alone, 48 h), the “exon 23 skip activity” value was “no exon skip activity”.
